Assay results reported in paper PMC11547513, “Design, Synthesis and Biological Activity Evaluation of β-Carboline Derivatives Containing Nitrogen Heterocycles” (Molecules, 2024).
Read-outs that look alike come from different tables or passages of the source.

Tests used:
[1] = test system: PC-3 (human prostate cancer cell); assay: MTT assay, in vitro cytotoxicity on PC-3; settings: Homo sapiens, 10 μM, average of three replicates, "/" means no anticancer activity
Excerpt: (§1) Cells were purchased from the Cell Bank of the Chinese Academy of Sciences (Kunming, China).

[2] = test system: A549 (human lung cancer cell); assay: MTT assay, in vitro cytotoxicity on A549; settings: A549, read-out: Inhibitory Activity/% at 10 μM, A549
Excerpt: as §1

[3] = test system: K562 (human chronic myeloid leukemia cell); assay: MTT assay, in vitro cytotoxicity on K562; settings: Homo sapiens, K562, read-out: Inhibitory Activity/% at 10 μM, K562
Excerpt: as §1

[4] = test system: T47D (human breast cancer cell); assay: MTT assay, in vitro cytotoxicity on T47D; settings: read-out: Inhibitory Activity/% at 10 μM, T47D
Excerpt: as §1

[5] = test system: Hek-293T (human embryonic kidney cells); assay: MTT assay, in vitro cytotoxicity on normal Hek-293T; settings: read-out: Inhibitory Activity/% at 10 μM, Hek-293T
Excerpt: as §1

[6] = read-out: Inhibitory Activity/% at 10 μM, PC-3, Table 1 (7 series)
[7] = read-out: Inhibitory Activity/% at 10 μM, PC-3, Table 2 (8 series)

melting point	Compound	inhibition at 10 µM [1, 6]	inhibition at 10 µM [2]	inhibition at 10 µM [3]	inhibition at 10 µM [4]	inhibition at 10 µM [5]	inhibition at 10 µM [1, 7]
246.4 to 248.3 °C	O=C(CSc1nnc(-c2cc3c(cn2)[nH]c2ccccc23)o1)N1CCN(c2ccc(Cl)cc2)CC1 [Compound 7e]	25 ± 4.06%	18 ± 2.06%	12.7 ± 4.72%	47.7 ± 3.36%	26.4 ± 1.35%	–
–	COc1cccc(N2CCN(C(=O)CSc3nnc(-c4cc5c(cn4)[nH]c4ccccc45)o3)CC2)c1 [Compound 7j]	14.7 ± 4.49%	34 ± 0.87%	13.6 ± 1.21%	39.9 ± 3.5%	13.4 ± 0.68%	–
–	O=c1[nH]cc(F)c(=O)[nH]1 [5-Fluorouracil, reference compound]	–	40.6 ± 2.04%	–	–	–	–
–	O=C(CSc1nnc(-c2cc3c(cn2)[nH]c2ccccc23)o1)N1CCN(c2ccc(F)cc2)CC1 [Compound 7d]	26.5 ± 5.76%	11.2 ± 0.69%	17.8 ± 3.97%	25.4 ± 4.82%	36.9 ± 1.74%	–
–	COc1cccc(N2CCN(C(=O)CSc3nnc(-c4cc5c([nH]c6ccccc65)c(-c5cc(OC)c(OC)c(OC)c5)n4)o3)CC2)c1 [Compound 8j]	–	0.13 ± 4.62%	25 ± 3.95%	< 0%	20.4 ± 1.51%	15.7 ± 3.93%
–	COc1cc(-c2nc(-c3nnc(SCC(=O)N4CCN(c5ccc(Cl)c(Cl)c5)CC4)o3)cc3c2[nH]c2ccccc23)cc(OC)c1OC [Compound 8a]	–	7.02 ± 4.02%	21 ± 1.65%	7.49 ± 3.25%	29.4 ± 2.16%	7.73 ± 1.33%
–	COc1cc(-c2nc(-c3nnc(SCC(=O)N4CCN(c5ccc(Cl)cc5)CC4)o3)cc3c2[nH]c2ccccc23)cc(OC)c1OC [Compound 8e]	–	26.8 ± 2.6%	54.4 ± 2.32%	< 0%	23.4 ± 3.77%	26.9 ± 4.39%
–	COc1cc(-c2nc(-c3nnc(SCC(=O)N4CCN(c5ccccc5)CC4)o3)cc3c2[nH]c2ccccc23)cc(OC)c1OC [Compound 8i]	–	18.4 ± 1.8%	25.5 ± 2.72%	0.56 ± 3.38%	25.6 ± 3.44%	21.3 ± 4.8%
–	COc1cc(-c2nc(-c3nnc(SCC(=O)N4CCN(S(C)(=O)=O)CC4)o3)cc3c2[nH]c2ccccc23)cc(OC)c1OC [Compound 8m]	–	2.7 ± 1.78%	30.2 ± 2.16%	< 0%	21 ± 2.61%	46.58 ± 0.35%
–	O=C(CSc1nnc(-c2cc3c(cn2)[nH]c2ccccc23)o1)Nc1ccc(CN2CCOCC2)cc1 [Compound 7q]	29.5 ± 1.38%	8.67 ± 0.64%	17 ± 1.86%	46.4 ± 2.86%	32.3 ± 2.21%	–
–	O=C(CSc1nnc(-c2cc3c(cn2)[nH]c2ccccc23)o1)N1CCN(C(c2ccc(F)cc2)c2ccc(F)cc2)CC1 [Compound 7o]	5.36 ± 3.63%	< 0%	1.26 ± 3.66%	25 ± 1.43%	35.3 ± 3.81%	–
–	O=C(CSc1nnc(-c2cc3c(cn2)[nH]c2ccccc23)o1)N1CCN(c2ccc(F)cc2F)CC1 [Compound 7h]	10.7 ± 2.68%	2.16 ± 3.56%	8.23 ± 4.12%	46.4 ± 2.12%	47.5 ± 0.78%	–
–	COc1ccc(N2CCN(C(=O)CSc3nnc(-c4cc5c(cn4)[nH]c4ccccc45)o3)CC2)cc1 [Compound 7f]	11.5 ± 2.78%	13.5 ± 6.97%	21.5 ± 3.02%	42.4 ± 4.23%	56.8 ± 2.21%	–
–	COc1cc(-c2nc(-c3nnc(SCC(=O)N4CCN(C5CCCCC5)CC4)o3)cc3c2[nH]c2ccccc23)cc(OC)c1OC [Compound 8p]	–	8.84 ± 0.36%	44.6 ± 4.1%	54.2 ± 4.87%	28.9 ± 3.22%	19.1 ± 2.79%
